Results from patent US20210393932A1, “DERMAL PATCHES AND GLASS SWABS FOR APPLICATION OF TOPICAL IMMUNOSENSITIZERS” (Squarex, LLC, priority 2020, published 2021).
Where “and” joins values, the source holds several entries; their conditions need not be identical. Equal values may be shown once.

How the values were obtained:
[1] = test system: mini pig skin; assay: Cutaneous irritation (Draize, Primary Irritation Index) after SADBE dermal patch in Gottingen mini-pig; assay type: in vivo, Gottingen miniswine; conditions: for Primary Irritation Index (pII) / Primary Irritation Index (pII), transient peak: 0-8 scale; for Primary Irritation Index (pII), transient peak: after the second dose; for duration of moderate levels of irritation / time to return to non-irritating levels post-dermal-application: re-challenge; for duration of severe cutaneous irritation: re-challenge at naive site
Protocol: (§1) A total of 6 Gottingen miniswine (3 female and 3 male) was used in this nonGLP study. Prior to dosing, the baseline body weights, group food consumption, and Draize scoring (see tables 1 and 2) for erythema and eschar formation and edema at the future dose site were recorded. A dermal patch (1 patch/animal) loaded with 20 microliters of 2, 6, or 18% SADBE drug solution was applied to animals, and left in place for ˜12 hours. Following the ˜12 hour dosing period, patch sites was assessed by Draize scoring as in Example 5, 5×/week for 21 days. […] After the 25 day assessment period, the animals were re-challenged and a second dosing and assessment phase performed for 30 days. At the end of the survival period, animals were humanely euthanized and a complete necropsy was performed. The test article vials used to prepare patches and mini-pig exposed patches were collected after application to determine SADBE content and SADBE degradation product squaric acid monobutyl ester (SAMBE) using HPLC at Squarex's Laboratory.
Cutaneous irritation at the test site was observed and scored each day of the study by the Draize Scale for both Erythema & Eschar and Edema. The scale for each is in Tables 9 and 10 in Example 5, each on a 0-4 scale. The cumulative Erythema & Eschar and Edema score was the Primary Irritation Index score, which would therefore be on a 0-8 scale.
The daily primary irritation index (pII) for each test article dose over the course of the study was calculated (FIG. 5). The pII is used to categorize the test article treatments as negligible to not irritating (0-0.9), slight (0.9-1.9), moderate (2-4.9) or severe (5-8) irritation potential.

[2] = test system: PBMCs in the presence of HSV-1; assay: Immune gene expression and proliferation of PBMCs from subjects dosed once with SADBE; assay type: cell-based, human
Excerpt: Introduction: Differences in immune characteristics, including immune gene expression by peripheral blood mononuclear cells (PBMCs), correlating with herpes labialis and good or poor immune control of herpes simplex virus type 1 (HSV-1) (i.e., frequency of herpes labialis episodes), and how these characteristics change after dosing with squaric acid dibutyl ester (SADBE), were investigated. Methods: PBMCs were collected from persons positive for IgG against HSV-1 and having frequent (self-reported 6 or more episodes in the prior 12 months), infrequent (1 or 2 episodes in the prior 12 months), or no herpes labialis outbreaks in the prior 12 months. The PBMCs were tested for proliferation against HSV-1 and a fungal antigen (Candida) and immune gene expression in the presence of HSV-1 and Candida. On day 1 after blood collection the subjects with frequent outbreaks were dosed topically on the arm once with 2% SADBE in DMSO, and their PBMCs were collected and tested 2 weeks later and 8 weeks later.
Doses were applied by dipping a cotton swab in a 1-ml vial of liquid study medication, then swabbing a spot on the inner aspect of the upper arm over an area of about 10 to 15 mm diameter encircled by petroleum jelly. After application, the spot was covered by TEGADERM™ dressing, and subjects were advised to remove the dressing and wipe the spot with a wet cloth 3 hours later. The weight of the vial of study medication with the vial standing in it was measured immediately before and immediately after dosing each subject. The difference was the net mass of drug applied. In most cases, 10 mg to 20 mg of drug solution was applied to the arm.

[3] = Toxicity evaluation (body weight, food consumption, necropsy, histopathology) in Gottingen mini-pig; assay type: in vivo, Gottingen miniswine
Excerpt: The purpose of this nonGLP study was to evaluate the effect of various concentrations of SADBE delivered via dermal patch, for dose site irritation and toxicity endpoints such as body weights, group food consumption, clinical observation, pre-termination clinical pathology, gross and histopathology.
as §1
Dose site was explanted, fixed, and embedded. Dose sites were examined histologically and an evaluation of cell type presence and tissue response conducted.

[4] = Residual SADBE and SAMBE in patches after 12 hours on mini-pigs; assay type: in vivo, Gottingen miniswine; conditions: for SADBE as % of expected (remaining in patch): 12 hours on mini-pigs
Protocol: (§2) Patches were removed from the pigs at the indicated times and immediately the reservoir portion of the patch was cut out and placed in a 50 ml tube with 10 ml of DMSO. The tubes of DMSO with patches were transported to the Squarex laboratory, shaken at 200 rpm for 30 minutes to overnight, and then the DMSO from each tube was placed in an injection vial and analyzed for SADBE content by HPLC on a C18 column with the program SADBE3-50 ul. SADBE elutes in this program at about 24.0 minutes and absorbs at 255 nm, so the area of the 24.0 min peak at 255 nm was used to quantify SADBE. The SADBE degradation product squaric acid monobutyl ester (SAMBE) was also quantified by 255 nm area under the curve at the elution time of 12.7 minutes.

[5] = Residual SADBE and SAMBE in patches after 12 hours on guinea pigs; assay type: in vivo, guinea pig
Protocol: as §2, with “1 hour or more,” for “30 minutes to overnight,”

[6] = single topical dose of 2% SADBE in DMSO to the arm, 56 days after dose vs day 1
[7] = any dose (2%, 6%, 18% SADBE patch)

CCCCOc1c(OCCCC)c(=O)c1=O [SADBE, squaric acid dibutyl ester]
irritation category by Primary Irritation Index (pII) ([1]; 2% SADBE, 20 microliters patch, ~12 hours, first dose): moderately irritating | Primary Irritation Index (pII) ([1]; 2% SADBE, after the first dose): ~3.5 | Primary Irritation Index (pII), transient peak ([1]; 2% SADBE): 5 | duration of moderate cutaneous irritation ([1]; 2% SADBE, induction): > 15 days | duration of moderate levels of irritation ([1]; 2% SADBE): ~17 days | time to return to non-irritating levels post-dermal-application ([1]; 2% SADBE): ~22 days | irritation category by Primary Irritation Index (pII) ([1]; 2% SADBE, re-challenge (second dose)): moderately-severely irritating | duration of severe cutaneous irritation ([1]; 2% SADBE): 1 to 2 days | irritation category by Primary Irritation Index (pII) ([1]; 6% SADBE, 20 microliters patch, ~12 hours, first dose): moderately irritating | Primary Irritation Index (pII) ([1]; 6% SADBE, after the first dose): 3.0-4.0 | Primary Irritation Index (pII), transient peak ([1]; 6% SADBE): 5.5 | duration of moderate cutaneous irritation ([1]; 6% SADBE, induction): ~21 days | duration of moderate levels of irritation ([1]; 6% SADBE): ~19 days | time to return to non-irritating levels post-dermal-application ([1]; 6% SADBE): ~22 days | irritation category by Primary Irritation Index (pII) ([1]; 6% SADBE, re-challenge (second dose)): moderately-severely irritating | duration of severe cutaneous irritation ([1]; 6% SADBE): 1 days | irritation category by Primary Irritation Index (pII) ([1]; 18% SADBE, 20 microliters patch, ~12 hours, first dose): moderately-severely irritating | Primary Irritation Index (pII) ([1]; 18% SADBE, first dose): ~5.0 | duration of moderate-severe cutaneous irritation ([1]; 18% SADBE, induction): ~22 days | duration of moderate levels of irritation ([1]; 18% SADBE): ~24 days | time to return to non-irritating levels post-dermal-application ([1]; 18% SADBE): ~26 days | irritation category by Primary Irritation Index (pII) ([1]; 18% SADBE, re-challenge (second dose)): severely irritating | duration of severe cutaneous irritation ([1]; 18% SADBE): ~5 days | Primary Irritation Index (pII) ([1]; 18% SADBE, second dose): ~6 | PBMC gene expression or proliferation measures vs day 1 ([2]; 2 weeks after the one dose of 2% SADBE): did not differ | IFNG expression in PBMCs in the presence of HSV-1 virus [2, 6]: increasing | IL5 expression in PBMCs in the presence of HSV-1 virus [2, 6]: decreasing | histopathology of treated skin sites: inflammatory infiltrates in the dermis ([3]; 2% & 6% SADBE): multifocal rare to mild infiltrates of inflammatory cells | histopathology of treated skin sites: inflammatory infiltrates in the dermis ([3]; 18% SADBE): multifocal mild to heavy infiltrates of inflammatory cells | histopathology: necrosis and fatty infiltration ([3]; all SADBE treated sites): minimal multifocal necrosis and fatty infiltration were observed | Cervical and Inguinal lymph node sections ([3]; all animals, all doses): within normal limits | gross necropsy ([3]; all doses): No abnormalities were noted | histopathology: parakeratosis ([3]; all sections examined): mild to moderate parakeratosis | effect on body weight [3, 7]: no significant effect | effect on food consumption [3, 7]: no significant effect | histopathology: neovascularization and fibrosis ([3]; any tissue sections examined): Neovascularization and fibrosis was not noted | SADBE apparently transferred into the mini pig skin ([4]; 2% patches, 12 hours): about 89% | SADBE as % of expected (remaining in patch) ([4]; 2% patches, individual animals): 7.0% and 14.6% | SADBE as % of expected (remaining in patch) ([4]; 6% patches, average of 2 animals): 35% and 35.4% | SADBE as % of expected (remaining in patch) ([4]; 6% patches, individual animals): 29.9% and 40.8% | SADBE as % of expected (remaining in patch) ([4]; 18% patches, average of 2 animals): 65% and 65.5% | SADBE as % of expected (remaining in patch) ([4]; 18% patches, individual animals): 65.2% and 65.8% | SADBE as % of expected (remaining in patch) ([5]; 2% patches, range of 10 patches): 0.0-1.3% | SADBE as % of expected (remaining in patch) ([5]; 6% patches, average of 10 patches): 11% and 10.67% | SADBE as % of expected (remaining in patch) ([5]; 6% patches, range of 10 patches): 2.7-22.7% | SADBE as % of expected (remaining in patch) ([5]; 18% patches, average of 10 patches): 34% and 34.13% | SADBE as % of expected (remaining in patch) ([5]; 18% patches, range of 10 patches): 23.0-46.5%
